From ChEMBL document CHEMBL3758177, “Synthesis and biological evaluation of novel phosphoramidate derivatives of coumarin as chitin synthase inhibitors and antifungal agents” (Eur J Med Chem, 2016)
Converted amounts (≈) assume the structure as drawn.

What was measured:
Candida albicans [1] = experiment: Antifungal activity against Candida albicans CMCC 76615 after 48 hrs by microdilution method; type: functional; settings: CMCC 76615, 48 h
Fusarium oxysporum [2] = experiment: Antifungal activity against Fusarium oxysporum ITCC 6246 after 48 hrs by microdilution method; type: functional; settings: ITCC 6246, 48 h
Candida albicans [3] = experiment: Antifungal activity against Candida albicans CMCC 76615 after seven days by disc diffusion method; type: functional
Aspergillus fumigatus = experiment: Antifungal activity against Aspergillus fumigatus GIMCC 3.19 after 24 hrs by two-fold serial dilution method; type: functional; settings: GIMCC 3.19, 24 h
Candida albicans [4] = experiment: Antifungal activity against Candida albicans CMCC 76615 after 24 hrs by two-fold serial dilution method; type: functional; settings: CMCC 76615, 24 h
Aspergillus flavus = experiment: Antifungal activity against Aspergillus flavus ATCC 16870 after 24 hrs by two-fold serial dilution method; type: functional; settings: ATCC 16870, 24 h
Cryptococcus neoformans = experiment: Antifungal activity against Cryptococcus neoformans ATCC 32719 after 24 hrs by two-fold serial dilution method; type: functional; settings: ATCC 32719, 24 h
Fusarium oxysporum [5] = experiment: Antifungal activity against Fusarium oxysporum ITCC 6246 after 48 hrs by micro-titer plate method; type: functional; settings: ITCC 6246, 48 h
Pseudomonas aeruginosa = experiment: Antibacterial activity against Pseudomonas aeruginosa ATCC 9027 after 24 hrs by two-fold serial dilution method; type: functional; settings: ATCC 9027, 24 h
Staphylococcus aureus [6] = experiment: Antibacterial activity against Methicillin-resistant Staphylococcus aureus N 315 after 24 hrs by two-fold serial dilution method; type: functional; settings: N 315, 24 h
Bacillus spizizenii = experiment: Antibacterial activity against Bacillus subtilis ATCC 6633 after 24 hrs by two-fold serial dilution method; type: functional; settings: ATCC 6633, 24 h
[7] = Inhibition of Candida tropicalis ATCC 750 chitin synthase using UDP-GlcNAc as substrate after 60 mins by microplate reader method
[8] = Non-competitive inhibition of Candida tropicalis ATCC 750 chitin synthase using UDP-GlcNAc as substrate by Lineweaver-Burk plot analysis
Staphylococcus aureus [9] = experiment: Antibacterial activity against Staphylococcus aureus ATCC 25923 after 24 hrs by two-fold serial dilution method; type: functional; settings: ATCC 25923, 24 h
Proteus vulgaris = experiment: Antibacterial activity against Proteus vulgaris ATCC 8427 after 24 hrs by two-fold serial dilution method; type: functional; settings: ATCC 8427, 24 h
Escherichia coli = experiment: Antibacterial activity against Escherichia coli JM 109 after 24 hrs by two-fold serial dilution method; type: functional; settings: JM 109, 24 h
Candida tropicalis = experiment: Inhibition of Candida tropicalis ATCC 750 chitin synthase using UDP-GlcNAc as substrate at 300 ug/ml after 60 mins by microplate reader method

| SMILES | MIC (Candida albicans [1]) [µg/mL] | MIC (Fusarium oxysporum [2]) [µg/mL] | MIC (Aspergillus fumigatus) [µg/mL] | MIC (Candida albicans [4]) [µg/mL] | MIC (Aspergillus flavus) [µg/mL] | MIC (Cryptococcus neoformans) [µg/mL] | MIC (Pseudomonas aeruginosa) [µg/mL] | MIC (Staphylococcus aureus [6]) [µg/mL] | MIC (Bacillus spizizenii) [µg/mL] | IC50 [7] [µM] | MIC (Staphylococcus aureus [9]) [µg/mL] | MIC (Proteus vulgaris) [µg/mL] | MIC (Escherichia coli) [µg/mL] | inhibition (Candida tropicalis) [%] | further results |
| --- | --- | --- | --- | --- | --- | --- | --- | --- | --- | --- | --- | --- | --- | --- | --- |
| Cc1ccc(NS(=O)(=O)c2cc3c(CN=[N+]=[N-])cc(=O)oc3cc2C)cc1 | 1 (≈ 2.6 µM) | 1 (≈ 2.6 µM) |  |  |  |  |  |  |  |  |  |  |  |  |  |
| O=c1oc2ccccc2c(Cl)c1/C=N/c1nncs1 |  |  |  |  |  |  |  |  |  |  |  |  |  |  | diameter of the inhibition zone (DIZ) (Candida albicans [3]): 15 mm |
| OC(Cn1cncn1)(Cn1cncn1)c1ccc(F)cc1F [FLUCONAZOLE] | 8 (≈ 26.1 µM) | 8 (≈ 26.1 µM) | 32 (≈ 104 µM) | 16 (≈ 52.2 µM) | 32 (≈ 104 µM) | 8 (≈ 26.1 µM) |  |  |  |  |  |  |  |  |  |
| C=C1CC(CC/C(C)=C\COc2ccc3ccc(=O)oc3c2)OC1=O (stereo not given) |  |  |  |  |  |  |  |  |  |  |  |  |  |  | MIC (Fusarium oxysporum [5]): 19 µg/mL (≈ 55.8 µM) |
| COC(=O)C(Cc1ccccc1)NP(=O)(OCCN(C)c1cc(=O)oc2ccc(C(C)(C)C)cc12)Oc1ccccc1 (stereo not given) |  |  | 32 (≈ 54 µM) | 8 (≈ 13.5 µM) | 2 (≈ 3.37 µM) | 8 (≈ 13.5 µM) | 16 (≈ 27 µM) | 128 (≈ 216 µM) | 32 (≈ 54 µM) | 80 | 8 (≈ 13.5 µM) | 16 (≈ 27 µM) | 16 (≈ 27 µM) | 90 | Ki [8]: 96 µM |
| COC(=O)C(C)NP(=O)(OCCN(C)c1cc(=O)oc2c(C)cccc12)Oc1ccccc1 (stereo not given) |  |  | 32 (≈ 67.4 µM) | 64 (≈ 135 µM) | 64 (≈ 135 µM) | 128 (≈ 270 µM) | 256 (≈ 540 µM) | 128 (≈ 270 µM) | 512 (≈ 1080 µM) | 220 | 64 (≈ 135 µM) | 128 (≈ 270 µM) | 128 (≈ 270 µM) | 64 |  |
